Values joined by “and” are separate entries in the source; they are usually repeats but may differ in a detail not shown here. Identical values can stand only once.
System: 885512-296-R-J2-PDC complex spheroid viability
Experiment: Anticancer human tumor 885512-296-R-J2-PDC patient-derived breast carcinoma cell line growth inhibition [GQUAD]
Conditions: for viability, T/C: stronger effect = lower value
Description: DNA G-quadruplex Stabilizer Agents in Combinations in Complex Spheroids
A high-throughput screen of multi-cell type tumor spheroids was designed to identify active combinations of DNA G-quadruplex stabilizer agents and targeted small molecules. Complex spheroids include a stromal component modeled by human endothelial cells (HUVEC) and fibroblasts modeled by human mesenchymal stem cells (MSCs). The concentration ranges selected for each drug and investigational agent were based upon clinically achievable concentrations if the clinical Cmax of the agent was known.
Compounds. The drugs and investigational agents: pidnarulex (CX-5461; NSC782164), APTO-253 (NSC789042), BRACO-19 (NSC847499), peposertib (NSC802822), ceralasertib (NSC780249), elimusertib (NSC800525), camonsertib (NSC841442), AZD-1390 (NSC803789), olaparib (NSC753686), talazoparib (NSC767125), ART-558 (NSC835418), sotorasib (NSC818433), MRTX-1133 (NSC836407), SN-38 (NSC673596), topotecan (NSC609699), etoposide (NSC141540), doxorubicin (NSC123127), gemcitabine (NSC613327), 5-fluorouracil (NSC19893), paclitaxel (NSC125973), vemurafenib (NSC761431), panobinostat (NSC761190), R-306465 (JNJ-16241199; NSC773264), adavosertib (NSC754352), TP-3654 (NSC805149), carboplatin (NSC241240), KSQ-4279 (NSC840948), and staurosporine (NSC755774) were obtained from the National Cancer Institute (NCI) Developmental Therapeutics Program Chemical Repository (34). The FDA-approved anticancer drug set is available from the NCI Developmental Therapeutics Program. […] The stock solutions were prepared in dimethyl sulfoxide (DMSO, Sigma-Aldrich, St. Louis, MO, cat. D2650) at 800-fold the tested concentration and stored at -70 degrees C prior to their use. All drugs and investigational agents were tested over a range starting from a high concentration at or near the clinical Cmax and decreasing in half-log increments. If the clinical Cmax for an agent had not been determined, the highest concentration tested was 10 microM.
2.3 Cell Culture. All cells were maintained in an incubator at 37 degrees C and 5% CO2 with 95% humidity. The PDC lines were cultured according to standard operating procedures established by the NCI PDMR. All PDCs were thawed and cultured in Matrigel-coated flasks prepared with a working solution of 1X Ham's F-12 nutrient mix, without supplementation (Invitrogen, cat. 11765054), 100 U/mL penicillin-streptomycin (Invitrogen, cat. 15140122), and 2.5% Matrigel (Corning Inc., cat. 354248) for the first three passages. The 857933-349-R-J2-PDC line was cultured in 6C/Colon 1B media, which includes advanced DMEM/F-12 (Thermo Fisher Scientific, cat. 12634028), 10 mM HEPES (Thermo Fisher Scientific, cat. 15630080), 1X GlutaMAX supplement (Thermo Fisher Scientific, cat. 35050061), 0.1 mg/mL primocin (InvivoGen, cat. ant-pm-2), 10% defined fetal bovine serum, heat inactivated (HyClone Laboratories Inc., cat. SH30070.03HI), 50% L-WRN conditioned media (ATCC, cat. CRL-3276), 1.25 mM N-Acetyl-L-cysteine (Sigma-Aldrich, cat. A9165), 10 mM nicotinamide (Sigma-Aldrich, cat. N0636), 1X B-27 supplement (Thermo Fisher Scientific, cat. 17504044), 1X N-2 supplement (Thermo Fisher Scientific, cat. 17502048), 10 microM Y-27632 dihydrochloride (Tocris Bioscience, cat. 1254), and 50 ng/mL human EGF recombinant protein (Thermo Fisher Scientific, cat. PHG0311). The 485176-168-R4-J1-PDC line was cultured in Panc media, which includes all 6C/Colon 1B media components plus 100 ng/mL human FGF-10 (Thermo Fisher Scientific, cat. 100-26), 500 nM SB-431542 (Selleckchem, cat. S1067), and gastrin (Tocris, cat. 3006).
[…]
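Further: spheroids exposed to the compounds for one week.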
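Wherever viability, T/C is given: percent of tumor spheroid viability relative to DMSO vehicle control wells.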

In the case of CC1COCCN1c1cc(C2(O)CC3CCC(C2)O3)c2cnn(-c3ccn[nH]3)c2n1 (stereo not given), the viability, T/C (compound 0.0316 µM) is reported as 35.6% and 35.7% and 28.2%, the viability, T/C (compound 0.1 µM) is reported as 5.4% and 6.31% and 4.72% and the viability, T/C (compound 0.316 µM) is reported as 3.47% and 3.66% and 2.97%. The viability, T/C (compound 1 µM) was 4.37% and 4.46% and 4.22%, the viability, T/C (compound 3.16 µM) was 5.77% and 6.96% and 7.53% and the viability, T/C (compound 10 µM) was 7.08% and 8.11% and 7.48%. For the same compound, the IC50 (curve of compound) was < 0.0316 µM.
With O=c1[nH]cc(F)c(=O)[nH]1 the viability, T/C (compound 0.0316 µM) was 94.2% and 107% and 96.5%, the viability, T/C (compound 0.1 µM) was 102% and 97.5% and 105% and the viability, T/C (compound 0.316 µM) was 113% and 107% and 99.3%. For the same compound, the viability, T/C (compound 1 µM) was 123% and 89.3% and 95.8%, the viability, T/C (compound 3.16 µM) was 71.7% and 58.4% and 66% and the viability, T/C (compound 10 µM) was 52.8% and 55% and 55.4%. The IC50 (curve of compound) was > 10 µM.
For CC(C)n1c(=O)n(C)c2cnc3cc(F)c(-c4ccc(OCCCN5CCCCC5)nc4)cc3c21, the viability, T/C (compound 0.0316 µM) was 88.8% and 89% and 85.8%, the viability, T/C (compound 0.1 µM) was 97% and 84.5% and 80.4% and the viability, T/C (compound 0.316 µM) was 88% and 93.7% and 77.8%. For the same compound, the viability, T/C (compound 1 µM) was 85.8% and 90.9% and 79.7%, the viability, T/C (compound 3.16 µM) was 104% and 97.5% and 90.3% and the viability, T/C (compound 10 µM) was 100% and 105% and 104%. The IC50 (curve of compound) was > 10 µM.
With CCc1c2c(nc3ccc(O)cc13)-c1cc3c(c(=O)n1C2)COC(=O)[C@]3(O)CC the viability, T/C (compound 0.000999 µM) was 25.5% and 14.5% and 17.8%, the viability, T/C (compound 0.00316 µM) was 8.48% and 8.19% and 8.06% and the viability, T/C (compound 0.00999 µM) was 5.42% and 2.67% and 4.25%. For the same compound, the viability, T/C (compound 0.0316 µM) was 3.41% and 2.61% and 2.84%, the viability, T/C (compound 0.0999 µM) was 2% and 2.11% and 1.97% and the viability, T/C (compound 0.316 µM) was 1.84% and 1.42% and 1.47%. For the same compound, the IC50 (curve of compound) was < 0.000999 µM.
With CC(=O)O[C@H]1C(=O)[C@@]2(C)[C@H]([C@H](OC(=O)c3ccccc3)[C@]3(O)C[C@H](OC(=O)[C@H](O)[C@@H](NC(=O)c4ccccc4)c4ccccc4)C(C)=C1C3(C)C)[C@]1(OC(C)=O)CO[C@@H]1C[C@@H]2O the viability, T/C (compound 0.0316 µM) was 79.3% and 9.94% and 12.2%, the viability, T/C (compound 0.316 µM) was 21.6% and 4.6% and 3.99% and the viability, T/C (compound 1 µM) was 2.5% and 3.51% and 4.61%. For the same compound, the viability, T/C (compound 3.16 µM) was 0.25% and 3.46% and 2.82%, the viability, T/C (compound 10 µM) was 0.14% and 3.66% and 4.04% and the IC50 (curve of compound) was 0.113 µM and < 0.0316 µM.
For O=C(c1cc(Cc2n[nH]c(=O)c3ccccc23)ccc1F)N1CCN(C(=O)C2CC2)CC1, the viability, T/C (compound 0.0316 µM) was 99.8% and 85.3% and 97.1%, the viability, T/C (compound 0.1 µM) was 117% and 107% and 96.9% and the viability, T/C (compound 0.316 µM) was 112% and 116% and 95.1%. For the same compound, the viability, T/C (compound 1 µM) was 152% and 127% and 126%, the viability, T/C (compound 3.16 µM) was 144% and 122% (2×) and the viability, T/C (compound 10 µM) was 41.6% and 24.8% and 33%. The IC50 (curve of compound) was 8.9 µM and 7.18 µM and 7.7 µM.
COc1ncnc(C2CC2)c1-c1ncc2cnn(Cc3ccc(-c4nc(C(F)(F)F)cn4C(C)C)cc3)c2n1 was tested, and the viability, T/C (compound 0.0316 µM) was 104% (2×) and 93%, the viability, T/C (compound 0.1 µM) was 101% and 86% and 90.6% and the viability, T/C (compound 0.316 µM) was 100% and 59.6% and 104%. The viability, T/C (compound 1 µM) was 94% and 35.3% and 100% and the viability, T/C (compound 3.16 µM) was 99.2% and 25.8% and 107%.
With C#Cc1c(F)ccc2cc(O)cc(-c3ncc4c(N5CC6CCC(C5)N6)nc(OCC56CCCN5CC(F)C6)nc4c3F)c12 (stereo not given) + Cc1cnc(CNC(=O)c2c(=O)c3ccc(N4CCCN(C)CC4)nc3n3c2sc2ccccc23)cn1 the IC50 (curve of first compound, second compound 0.0316 µM) was > 10 µM, the IC50 (curve of first compound, second compound 0.1 µM) was > 10 µM and the IC50 (curve of first compound, second compound 0.316 µM) was < 0.0316 µM. For the same compound, the IC50 (curve of first compound, second compound 1 µM) was < 0.0316 µM, the IC50 (curve of first compound, second compound 3.16 µM) was < 0.0316 µM and the IC50 (curve of first compound, second compound 10 µM) was < 0.0316 µM. The viability, T/C (second compound 0.0316 µM, first compound 0.0316 µM) was 81.9%, the viability, T/C (second compound 0.0316 µM, first compound 0.1 µM) was 80.5% and the viability, T/C (second compound 0.0316 µM, first compound 0.316 µM) was 85.2%. For the same compound, the viability, T/C (second compound 0.0316 µM, first compound 1 µM) was 83.9%, the viability, T/C (second compound 0.0316 µM, first compound 3.16 µM) was 96.2% and the viability, T/C (second compound 0.0316 µM, first compound 10 µM) was 83.5%. For the same compound, the viability, T/C (second compound 0.1 µM, first compound 0.0316 µM) was 60.2%, the viability, T/C (second compound 0.1 µM, first compound 0.1 µM) was 60.3% and the viability, T/C (second compound 0.1 µM, first compound 0.316 µM) was 69.4%. It also gave a viability, T/C (second compound 0.1 µM, first compound 1 µM) of 59.8%, a viability, T/C (second compound 0.1 µM, first compound 3.16 µM) of 66.5% and a viability, T/C (second compound 0.1 µM, first compound 10 µM) of 56.5%. The viability, T/C (second compound 0.316 µM, first compound 0.0316 µM) was 32.4%, the viability, T/C (second compound 0.316 µM, first compound 0.1 µM) was 26.6% and the viability, T/C (second compound 0.316 µM, first compound 0.316 µM) was 31.7%. The viability, T/C (second compound 0.316 µM, first compound 1 µM) was 34.7%, the viability, T/C (second compound 0.316 µM, first compound 3.16 µM) was 22.9% and the viability, T/C (second compound 0.316 µM, first compound 10 µM) was 31.9%. The viability, T/C (second compound 1 µM, first compound 0.0316 µM) was 24.9%, the viability, T/C (second compound 1 µM, first compound 0.1 µM) was 23.8% and the viability, T/C (second compound 1 µM, first compound 0.316 µM) was 24.6%. It also gave a viability, T/C (second compound 1 µM, first compound 1 µM) of 28.2%, a viability, T/C (second compound 1 µM, first compound 3.16 µM) of 29.4% and a viability, T/C (second compound 1 µM, first compound 10 µM) of 23.9%. For the same compound, the viability, T/C (second compound 3.16 µM, first compound 0.0316 µM) was 24.8%, the viability, T/C (second compound 3.16 µM, first compound 0.1 µM) was 32.1% and the viability, T/C (second compound 3.16 µM, first compound 0.316 µM) was 26.4%. For the same compound, the viability, T/C (second compound 3.16 µM, first compound 1 µM) was 28.7%, the viability, T/C (second compound 3.16 µM, first compound 3.16 µM) was 29.1% and the viability, T/C (second compound 3.16 µM, first compound 10 µM) was 9.52%. For the same compound, the viability, T/C (second compound 10 µM, first compound 0.0316 µM) was 0.12%, the viability, T/C (second compound 10 µM, first compound 0.1 µM) was 0.16% and the viability, T/C (second compound 10 µM, first compound 0.316 µM) was 0.18%. It also gave a viability, T/C (second compound 10 µM, first compound 1 µM) of 0.13%, a viability, T/C (second compound 10 µM, first compound 3.16 µM) of 0.19% and a viability, T/C (second compound 10 µM, first compound 10 µM) of 0.16%.
With COc1cc(C2c3cc4c(cc3C(OC3OC5COC(C)OC5C(O)C3O)C3COC(=O)C23)OCO4)cc(OC)c1O (stereo not given) the viability, T/C (compound 0.0316 µM) was 100% and 98.3% and 90.5%, the viability, T/C (compound 0.1 µM) was 97.9% and 98.6% and 88.2% and the viability, T/C (compound 0.316 µM) was 87.8% and 77.3% and 74.2%. For the same compound, the viability, T/C (compound 1 µM) was 43.1% and 30.2% and 27.2%, the viability, T/C (compound 3.16 µM) was 15.4% and 11.7% and 11.3% and the viability, T/C (compound 10 µM) was 9.14% and 7.67% and 7.65%. The IC50 (curve of compound) was 0.843 µM and 0.618 µM and 0.573 µM.

Reference: PubChem BioAssay AID2060490 (Molecular Pharmacology Branch, DTP, NCI, 2025)
